Patent US20250367330A1, “OPTICAL CLEARING ENABLED BY THE KRAMERS-KRONIG RELATION” (The Board of Trustees of the Leland Stanford Junior …, priority 2021, published 2025)
Each block holds one molecule with its values, some of them ahead of it.

How the values were obtained:
[1] = Ellipsometry measurement of solution refractive index and molar n′ change β; format: physicochemical
Procedure: A Horiba UVISEL ellipsometer was used to measure the real and imaginary parts of the refractive index of solutions at different concentrations of specific dye molecules. For solution measurement, 5 mL of solution was added to a shallow glass petri-dish (35×10 mm, Corning Falcon). The solution covers the entire bottom of the petri-dish creating a flat, reflective air-liquid interface. The reflected light was measured at an angle of 69.85° and the refractive index of the solution was calculated using a single interface semi-infinite reflection model. For all the measurements, 0.2 s integration time was used for each wavelength.
Measurements of the Molar n′ Change, β
The molar n′ change, β, is defined and measured according to the following quantitative relationship between the n′ and c (i.e., the concentration) of an aqueous solution containing dissolved clearing agents:
[formula] • where nw′ is the real RI of pure water, c is the molar concentration (M) of the clearing agent, and β is its molar n′ change. Note that n′, nw′, and β all have wavelength dependence. According to eq. (6), by measuring the n′(λ) of the solutions with ellipsometry, one can obtain β(λ) by fitting n′(λ) with c to a linear relationship.

[2] = when used as a clearing agent, reported; cited from earlier work
chicken breast tissue [3] = experiment: Temporal evolution of transmittance during immersion, diffusion in chicken breast tissue
Excerpt: (FIG. 19A) Temporal evolution of transmittance T at different wavelengths of a chicken breast tissue immersed in a 0.62 M solution of Dye-4. (FIG. 19B) Temporal evolution of normalized T at different wavelengths. T is normalized between 0 and 1 against minimum and maximum T for each wavelength. (FIG. 19C) Temporal evolution of normalized T averaged over measurements at all wavelengths in FIG. 19B, enabling the extraction of the diffusion constant by fitting the normalized T to
This tissue sample has a thickness of d=1.82 mm; therefore, the diffusion coefficient D of Dye-4 therein can be calculated as
For this reason, estimates of the diffusion rate of Dye-4 molecules can be made in chicken breast by tracking the temporal evolution of T during dye immersion (FIGS. 6F and 19A-19C). […] Using a dilute solution to achieve the same Δn′ and clearing effect benefits from a low viscosity of the clearing agent, thus promoting its diffusion kinetics.
For transmission measurements of chicken breast tissue, the tissue sample was first mounted on a microscope slide (precleaned, 12-550-15, Fisher Scientific), which was placed in the light path of the UV-Vis spectrometer to ensure that the entire incident beam is blocked by the tissue. For time-dependent transmission measurement, the tissue was cut to fit into a 1 cm optical path plastic cuvette (acrylic, 14-955-126, Fisher Scientific) while having sufficient area to completely block the incident light. 3 mL of Dye-4 solution was then slowly added to fully immerse the chicken breast tissue, before the cuvette was sealed by parafilm (Bemis Company, Inc., Neenah, Wisconsin, USA) to minimize water evaporation. The temperature of the cuvette was controlled between 25 and 30° C. during measurements.
The thickness of the tissue was measured by sandwiching the tissue between two coverslips (22×22×0.15 mm, Thermal Scientific) using a digital caliper (Mitutoyo). The transmission spectra of the tissue were measured by attaching the chicken breast tissue on a microscope slide (precleaned, Fisher Scientific).

[4] = Screening of absorbing molecules for K-Klear by α, β and β/α spectra; format: physicochemical
Excerpt: (FIG. 3A) The relation between average molar absorption a and average molar n′ change β in the wavelength range between 500 to 700 nm for different molecules. (FIG. 3B) The ratio between the molar n′ change and molar absorption (β/α) for different absorbing molecules. The “white window” indicates a potential clearing spectrum with sufficient Δn′ and minimal absorption. (FIGS. 3C-3D) Imaginary part n″ (FIG. 3C) and real part n′ (FIG. 3D) of the RI of Dye-4 solutions at different concentrations measured from ellipsometry.
In practice, the agent should display a large absorption coefficient in order to realize the large, required changes in n′. […] At the same time, the agent should have minimal absorption at the wavelength for imaging, thus calling for a single narrow absorption peak without any additional absorption at longer wavelengths. In addition to these purely optical requirements, the agents also need to display a high solubility and diffusivity in water as well as excellent biocompatibility to facilitate in vivo application.

[5] = UV-Vis absorption of dye solutions in water (molar absorption α, extinction coefficient); format: physicochemical; settings: for absorption at wavelengths above 600 nm: aqueous solutions, b66: 1 mM to 1.0 M
Excerpt: A Thermo Fisher Scientific Evolution 350 UV-Vis spectrophotometer was used to measure the transmission and absorption spectra of dye solutions, silica phantoms, and ex-vivo chicken breast tissues. For all the measurements, 0.2 s acquisition time was used for each wavelength.
For transmission measurements of dye solutions, 1 mm optical path quartz cuvettes (high precision, two polished sides, Orient Analytics) were used and the cells were washed with aqua regia (mixture of 36.5-38.0 w/w % HCl and 68.0-70.0 w/w % HNO3 with a volume ratio of 3:1), fully rinsed with water and dried before use. A reference spectrum was acquired with water alone, thus correcting any loss of light due to intrinsic water absorption and reflection at the air-quartz interfaces.

chicken breast tissue [6] = experiment: Ex vivo K-Klear of chicken breast tissue, transmittance and attenuation coefficient; settings: immersion in 0.62 M solution, beyond 600 nm
Excerpt: To gradually increase the n′ of the aqueous components in chicken breast, the tissue slices were sequentially immersed in solutions containing an increasing concentration of Dye-4 (FIG. 6A; see Example 7).
To verify this point, the Dye-4 concentration was varied in the last immersion step and measure T before and after dye immersion (FIGS. 6C and 18).
For transmission measurements of chicken breast tissue, the tissue sample was first mounted on a microscope slide (precleaned, 12-550-15, Fisher Scientific), which was placed in the light path of the UV-Vis spectrometer to ensure that the entire incident beam is blocked by the tissue. For time-dependent transmission measurement, the tissue was cut to fit into a 1 cm optical path plastic cuvette (acrylic, 14-955-126, Fisher Scientific) while having sufficient area to completely block the incident light. 3 mL of Dye-4 solution was then slowly added to fully immerse the chicken breast tissue, before the cuvette was sealed by parafilm (Bemis Company, Inc., Neenah, Wisconsin, USA) to minimize water evaporation. […]
The thickness of the tissue was measured by sandwiching the tissue between two coverslips (22×22×0.15 mm, Thermal Scientific) using a digital caliper (Mitutoyo). The transmission spectra of the tissue were measured by attaching the chicken breast tissue on a microscope slide (precleaned, Fisher Scientific). […]

mouse scalp = experiment: In vivo optical clearing of mouse scalp by topical gel, laser speckle imaging of cerebral vessels; design: species or system mice; settings: gel containing 0.62 M dye, 785 nm
Excerpt: Given the successful clearing of scattering phantoms and chicken breasts using this approach, the possibility to achieve clearing in live animals was next explored. Procedures were developed to circumvent the destructive procedures or the use of toxic chemicals commonly used in ex vivo tissue clearing methods. […] It was hypothesized that owing to the small molecular weight and sufficiently large diffusion coefficient of Dye-4 in tissue, it can be delivered topically to optically clear the skin, thus exposing underlying structures that are otherwise obscured by the skin (FIG. 7A). […] The opacity of the scalp always requires its removal for fluorescence imaging of neuron activity or laser speckle imaging of cerebral hemodynamics in the mouse brain. […]
(§1) Before each imaging experiment, the mice were weighed and anesthetized via intraperitoneal (i.p.) injection of a mixture of 16 mg/kg ketamine (Dechra Veterinary Products) and 0.2 mg/kg dexdomitor (Dexmedesed; Dechra Veterinary Products) by insulin syringes with a 30 G needle gauge. […] The hair over the mouse head was removed for the in-vivo fluorescence imaging at the mice head. The hair over the mouse hindlimbs was removed for in-vivo reflectance and fluorescence imaging at the hind limbs. […]

[7] = EFSA conclusion; cited from earlier work
[8] = Imaging of 1951 USAF resolution target through 1-mm scattering phantoms; settings: optimum K-Klear conditions
Procedure: To this end, the resolvable spatial frequencies of a 1951 US Air Force (USAF) resolution target were quantified when imaging it through 1-mm scattering phantoms with different Dye-4 concentrations (FIGS. 5A-5B; FIGS. 14A-15E; see Example 7 for preparation of the phantom). The scattering phantom is placed between the objective lens and the USAF target, which is back illuminated with a white lamp (FIG. 16).
The hydrogel-silica scatter phantom in FIGS. 5A-5M was prepared by mixing the silica nanoparticle suspension (1 μm, 10 mg mL^−1) with low melting temperature agarose and Dye-4 of different amounts. The final concentration of agarose was 6 mg mL^−1. […] The mixture was then heated in an oven at 70° C. for at least 10 min to facilitate the dissolution of agarose. A 400-μL suspension was pipetted and injected into the well of a 1-mm silicone isolator (Grace bio-labs, Bend, Oregon, USA) mounted on a coverslip (24×40×0.15 mm, Fisher Scientific). The top of the solution was then sealed by another coverslip (22×22×0.15 mm, Thermo Scientific, Waltham, Massachusetts, USA) and the phantom was left at room temperature for slow solidification. […]

mouse hindlimb skin = experiment: In vivo optical clearing of mouse hindlimb skin by topical gel, SHG sarcomere imaging; design: species or system mice; settings: gel containing 0.62 M dye topically
Excerpt: Sarcomeres, basic contractile units of skeletal and cardiac muscles, were chosen as the targets for imaging owing to their central roles in muscle functions and implications in neuromuscular diseases (e.g., spinal muscular atrophy). Existing in vivo sarcomere imaging methods require the invasive implantation of microendoscopes inside the muscle tissue for imaging the second-harmonic generation (SHG) signals from myosin rods in the sarcomere. It was hypothesized that the need for an invasively implanted microendoscope can be alleviated by applying the K-Klear method to reduce the scattering in the skin. […] This average periodicity value between SHG-generating myosin rods agrees with the reported sarcomere lengths measured via an implanted microendoscope, thus confirming the ability of K-Klear to resolve microscopic features through cleared tissue. […]
as §1

[9] = wavelength 600 nm, aqueous solution

Compound: Cc1cc(=O)n(-c2ccccc2)n1C [Antipyrine, reference compound]
Molar n′ change β [1, 9]: 0.037 ± 0.003 M⁻¹

Molar n′ change β ([1]; wavelength 589.6 nm): 0.0084 M⁻¹
Compound: CC(O)CO (stereo not shown) [Propylene glycol, reference compound]
diffusion coefficient [2]: 0.021×10^−6 cm^2 s^−1

Molar n′ change β ([1]; wavelength 589.6 nm): 0.0462 M⁻¹
Compound: OC[C@H]1O[C@@](CO)(O[C@H]2O[C@H](CO)[C@@H](O)[C@H](O)[C@H]2O)[C@@H](O)[C@@H]1O [Sucrose, reference compound]
required immersion time to achieve the same n′ increase (chicken breast tissue [3]; chicken breast): 24 h

Compound: [Cl-].[Na+] [Sodium chloride, reference compound]
Molar n′ change β ([1]; wavelength 589 nm): 0.00094 M⁻¹

potential for clearing from β/α spectrum ([4]; longer wavelengths / NIR spectrum): greatest potential
Compound: CC1(C)C(/C=C/C2=C(Cl)C(=C/C=C3\N(CCCCS(=O)(=O)[O-])c4ccccc4C3(C)C)/CCC2)=[N+](CCCCS(=O)(=O)[O-])c2ccccc21.[Na+] [Dye-21, Sodium 4-[2-[2-[2-chloro-3-[2-[3,3-dimethyl-1-(4-sulfonato-butyl)indol-1-ium-2-yl]vinyl]cyclohex-2-en-1-ylidene]ethylidene]-3,3-dimethyl-indolin-1-yl]butane-1-sulfonate]

concentration needed to raise the baseline n′ of water to match that of lipids [1]: 11.6 M
Molar n′ change β ([1]; in the visible spectrum): 0.0129 M⁻¹
Molar n′ change β ([1]; wavelength 589.6 nm): 0.0129 M⁻¹
molar absorption coefficient α [5]: 0.012 M⁻¹
Compound: OCC(O)CO [Glycerol, reference compound]

β higher than that of molecules commonly used to raise the n′ of water [1]: 2-3 orders of magnitude
efficiency in raising the n′ of water relative to glycerol on a per molar basis ([1]; at 600 nm): 11 ×
n′ of solution reachable ([1]; at a soluble concentration, ellipsometry): up to 1.49
Molar n′ change β ([1]; wavelength 500 nm, aqueous solution): 0.198 ± 0.005 M⁻¹
Molar n′ change β [1, 9]: 0.143 ± 0.004 M⁻¹
Molar n′ change β ([1]; wavelength 700 nm, aqueous solution): 0.128 ± 0.004 M⁻¹
Molar n′ change β ([1]; wavelength 800 nm, aqueous solution): 0.130 ± 0.008 M⁻¹
absorption at wavelengths above 600 nm [5]: minimally absorbing
absorption at wavelengths above 600 nm ([5]; listed as tartrazine): do not absorb
peak absorption wavelength ([5]; dissolved in water): 428 nm
diffusion coefficient (chicken breast tissue [3]; in chicken breast tissue, clearing solution): 0.66×10^−6 cm^2 s^−1
β among candidates while maintaining low α ([4]; visible spectrum of 500-700 nm, 21 candidates): highest
Compound: O=C([O-])c1nn(-c2ccc(S(=O)(=O)[O-])cc2)c(O)c1/N=N/c1ccc(S(=O)(=O)[O-])cc1.[Na+].[Na+].[Na+] [Dye-4, Trisodium 5-hydroxy-1-(4-sulfonato-phenyl)-4-[(E)-(4-sulfonato-phenyl)diazenyl]-1H-pyrazole-3-carboxylate]
normalized attenuation coefficient relative to original tissue (chicken breast tissue [6]): approximately 40%
laser speckle image through intact scalp after topical application (mouse scalp): clearly reveals vascular structures representative of cerebral vessels
dose with no adverse effects or systemic toxicity [7]: up to 2 g per kg of body weight
resolvable spatial frequency through 1-mm scattering phantom [8]: up to 228.1 lp mm^−1
characteristic periodicity (sarcomere length) identified through the skin window (mouse hindlimb skin): 2.60±0.28 μm
depth at which sarcomere structures are identified through the skin (mouse hindlimb skin; 1040 nm): > 200 μm
time constant τ of normalized transmittance (chicken breast tissue [3]; 0.62 M solution, tissue thickness 1.82 mm): 85.0 ± 1.2 min
time until transmission changes saturate (chicken breast tissue [3]; 2-mm-thick chicken breast, 0.62 M solution): 2 to 3 h
